Laboratory results published in the supplement of paper PMC4862054.

system: MCF-10A; experiment: normalised response (% of control), CellTox Green; higher = less cell death (100 = DMSO, 0 = benzethonium chloride kill control); details: incubation time: 72 h
How it was run: (§1)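 The table gives the normalised signal for a single concentration in each entry. Breast cancer cell lines were seeded (20 µl suspension) into 384-well plates holding compound at 5 concentrations in 10-fold steps over a compound-specific 10,000-fold range and incubated 72 h, then read for CellTox Green fluorescence (485/520 nm) and CellTiter-Glo luminescence. Normalisation on each plate used 0.1 % DMSO (100) and a positive kill control (0).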

Q: Which normalised response does the source give for `Cc1c(Cn2c(C)nc3c(C(=O)O)cc(N4CCOCC4)cc32)cccc1C(F)(F)F` (100 nM) here?
A: Its normalised response is 101%.

Q: For `CCCCC/C=C/C=C1/C(=O)C=C[C@@H]1C/C=C\CCCC(=O)O` [15D-PGJ2] (8 nM), which normalised response is on record?
A: Its normalised response is 64.6%.

Q: `CC(=O)OC[C@H]1O[C@@H]([S-])[C@H](OC(C)=O)[C@@H](OC(C)=O)[C@@H]1OC(C)=O.CCP(CC)CC.[Au+]` [Auranofin] (25 nM) was tested. Which normalised response did it give?
A: The normalised response was 62.3%.

Q: `Cc1c(CN2CCN(C(=O)[C@H](C)O)CC2)sc2c(N3CCOCC3)nc(-c3cnc(N)nc3)nc12` [GDC-0980] (100 nM) was tested. Which normalised response did it give?
A: The normalised response was 83.3%.

Q: Which normalised response does the source give for `Cc1cccc(-c2nn3c(c2-c2ccnc4ccc(C(N)=O)cc24)CCC3)n1` [Galunisertib] (10 nM) here?
A: The normalised response was 82.4%.

Q: With `O=C1c2c(O)ccc(O)c2C(=O)c2c(NCCNCCO)ccc(NCCNCCO)c21` [Mitoxantrone] (10 nM) as the molecule, how does the normalised response read?
A: Its normalised response is 107%.

Q: `O=C(CCBr)N1CCN(C(=O)CCBr)CC1` [Pipobroman] (100 nM) was tested. Which normalised response did it give?
A: The normalised response was 84.8%.

Q: How did the normalised response turn out when `CC(C)N(CCCNC(=O)Nc1ccc(C(C)(C)C)cc1)C[C@H]1O[C@@H](n2cc(Br)c3c(N)ncnc32)[C@H](O)[C@@H]1O` [SGC0946] (100 nM) was run?
A: The normalised response was 99%.

system: Hs578T; experiment: as above; details: incubation time: 72 h
How it was run: as §1

Q: Which normalised response does the source give for `Cc1c(Cn2c(C)nc3c(C(=O)O)cc(N4CCOCC4)cc32)cccc1C(F)(F)F` (100 nM) here?
A: Its normalised response is 109%.

Q: `CCCCC/C=C/C=C1/C(=O)C=C[C@@H]1C/C=C\CCCC(=O)O` [15D-PGJ2] (8 nM) was tested. Which normalised response did it give?
A: The normalised response was 113%.

Q: How did the normalised response turn out when `Cc1cccc(-c2nn3c(c2-c2ccnc4ccc(C(N)=O)cc24)CCC3)n1` [Galunisertib] (10 nM) was run?
A: Its normalised response is 100%.

Q: `COc1nc(N)nc2c1ncn2[C@@H]1O[C@H](CO)[C@@H](O)[C@@H]1O` [Nelarabine] (100 nM) was tested. Which normalised response did it give?
A: Its normalised response is 107%.

system: MDA-MB-468; experiment: as above; details: incubation time: 72 h
How it was run: as §1

Q: How did the normalised response turn out when `Cc1c(Cn2c(C)nc3c(C(=O)O)cc(N4CCOCC4)cc32)cccc1C(F)(F)F` (100 nM) was run?
A: Its normalised response is 134%.

Q: `CCCCC/C=C/C=C1/C(=O)C=C[C@@H]1C/C=C\CCCC(=O)O` [15D-PGJ2] (8 nM) was tested. Which normalised response did it give?
A: The normalised response was 82%.

Q: With `CC(=O)OC[C@H]1O[C@@H]([S-])[C@H](OC(C)=O)[C@@H](OC(C)=O)[C@@H]1OC(C)=O.CCP(CC)CC.[Au+]` [Auranofin] (25 nM) as the molecule, how does the normalised response read?
A: The normalised response was 117%.

Q: How did the normalised response turn out when `Cc1c(CN2CCN(C(=O)[C@H](C)O)CC2)sc2c(N3CCOCC3)nc(-c3cnc(N)nc3)nc12` [GDC-0980] (100 nM) was run?
A: The normalised response was 124%.

Q: How did the normalised response turn out when `Cc1cccc(-c2nn3c(c2-c2ccnc4ccc(C(N)=O)cc24)CCC3)n1` [Galunisertib] (10 nM) was run?
A: Its normalised response is 101%.

Q: Which normalised response does the source give for `O=C1c2c(O)ccc(O)c2C(=O)c2c(NCCNCCO)ccc(NCCNCCO)c21` [Mitoxantrone] (10 nM) here?
A: The normalised response was 129%.

Q: `COc1nc(N)nc2c1ncn2[C@@H]1O[C@H](CO)[C@@H](O)[C@@H]1O` [Nelarabine] (100 nM) was tested. Which normalised response did it give?
A: Its normalised response is 135%.

Q: How did the normalised response turn out when `CC(C)N(CCCNC(=O)Nc1ccc(C(C)(C)C)cc1)C[C@H]1O[C@@H](n2cc(Br)c3c(N)ncnc32)[C@H](O)[C@@H]1O` [SGC0946] (100 nM) was run?
A: Its normalised response is 108%.

system: MDA-MB-231; experiment: as above; details: incubation time: 72 h
How it was run: as §1

Q: With `Cc1c(Cn2c(C)nc3c(C(=O)O)cc(N4CCOCC4)cc32)cccc1C(F)(F)F` (100 nM) as the molecule, how does the normalised response read?
A: Its normalised response is 124%.

Q: With `CCCCC/C=C/C=C1/C(=O)C=C[C@@H]1C/C=C\CCCC(=O)O` [15D-PGJ2] (8 nM) as the molecule, how does the normalised response read?
A: Its normalised response is 118%.

Q: For `CC(=O)OC[C@H]1O[C@@H]([S-])[C@H](OC(C)=O)[C@@H](OC(C)=O)[C@@H]1OC(C)=O.CCP(CC)CC.[Au+]` [Auranofin] (25 nM), which normalised response is on record?
A: Its normalised response is 123%.

Q: How did the normalised response turn out when `Cc1c(CN2CCN(C(=O)[C@H](C)O)CC2)sc2c(N3CCOCC3)nc(-c3cnc(N)nc3)nc12` [GDC-0980] (100 nM) was run?
A: The normalised response was 81.2%.

Q: For `Cc1cccc(-c2nn3c(c2-c2ccnc4ccc(C(N)=O)cc24)CCC3)n1` [Galunisertib] (10 nM), which normalised response is on record?
A: Its normalised response is 116%.

Q: With `O=C1c2c(O)ccc(O)c2C(=O)c2c(NCCNCCO)ccc(NCCNCCO)c21` [Mitoxantrone] (10 nM) as the molecule, how does the normalised response read?
A: Its normalised response is 104%.

Q: How did the normalised response turn out when `COc1nc(N)nc2c1ncn2[C@@H]1O[C@H](CO)[C@@H](O)[C@@H]1O` [Nelarabine] (100 nM) was run?
A: Its normalised response is 92.1%.

Q: With `O=C(CCBr)N1CCN(C(=O)CCBr)CC1` [Pipobroman] (100 nM) as the molecule, how does the normalised response read?
A: Its normalised response is 94.4%.

Q: How did the normalised response turn out when `CC(C)N(CCCNC(=O)Nc1ccc(C(C)(C)C)cc1)C[C@H]1O[C@@H](n2cc(Br)c3c(N)ncnc32)[C@H](O)[C@@H]1O` [SGC0946] (100 nM) was run?
A: Its normalised response is 73.8%.

system: BT-474; experiment: as above; details: incubation time: 72 h
How it was run: as §1

Q: With `Cc1c(Cn2c(C)nc3c(C(=O)O)cc(N4CCOCC4)cc32)cccc1C(F)(F)F` (100 nM) as the molecule, how does the normalised response read?
A: Its normalised response is 104%.

Q: For `CCCCC/C=C/C=C1/C(=O)C=C[C@@H]1C/C=C\CCCC(=O)O` [15D-PGJ2] (8 nM), which normalised response is on record?
A: Its normalised response is 102%.

Q: How did the normalised response turn out when `CC(=O)OC[C@H]1O[C@@H]([S-])[C@H](OC(C)=O)[C@@H](OC(C)=O)[C@@H]1OC(C)=O.CCP(CC)CC.[Au+]` [Auranofin] (25 nM) was run?
A: The normalised response was 105%.

Q: `Cc1c(CN2CCN(C(=O)[C@H](C)O)CC2)sc2c(N3CCOCC3)nc(-c3cnc(N)nc3)nc12` [GDC-0980] (100 nM) was tested. Which normalised response did it give?
A: Its normalised response is 101%.

Q: Which normalised response does the source give for `Cc1cccc(-c2nn3c(c2-c2ccnc4ccc(C(N)=O)cc24)CCC3)n1` [Galunisertib] (10 nM) here?
A: Its normalised response is 103%.

Q: How did the normalised response turn out when `O=C1c2c(O)ccc(O)c2C(=O)c2c(NCCNCCO)ccc(NCCNCCO)c21` [Mitoxantrone] (10 nM) was run?
A: Its normalised response is 101%.

Q: With `COc1nc(N)nc2c1ncn2[C@@H]1O[C@H](CO)[C@@H](O)[C@@H]1O` [Nelarabine] (100 nM) as the molecule, how does the normalised response read?
A: The normalised response was 75.7%.

Q: Which normalised response does the source give for `O=C(CCBr)N1CCN(C(=O)CCBr)CC1` [Pipobroman] (100 nM) here?
A: The normalised response was 87.5%.

Q: For `CC(C)N(CCCNC(=O)Nc1ccc(C(C)(C)C)cc1)C[C@H]1O[C@@H](n2cc(Br)c3c(N)ncnc32)[C@H](O)[C@@H]1O` [SGC0946] (100 nM), which normalised response is on record?
A: The normalised response was 98.2%.

system: CAL-120; experiment: as above; details: incubation time: 72 h
How it was run: as §1

Q: With `Cc1c(Cn2c(C)nc3c(C(=O)O)cc(N4CCOCC4)cc32)cccc1C(F)(F)F` (100 nM) as the molecule, how does the normalised response read?
A: Its normalised response is 106%.
